# Assay results from US20050049186A1, “Peptides mimicking the biological activity of steroid hormones and their uses” (priority 2000, published 2005).
# Peptide text beside a SMILES is read from it.
# Experiments:
# [1] = molecular target: anti-estradiol mAb, clone 15; assay: Competitive binding radioimmunoassay with [3H]-estradiol; parameters: species or system mouse; details: RIA, FIG. 1; read-out: IC50, competition with [3H]-estradiol for binding sites of anti-estradiol mAb clone 15
# [2] = molecular target: anti-estradiol mAb clone 15; assay: Competitive immunoassay: inhibition of binding of labeled E2 (estradiol ovalbumin europium conjugate) to anti-E2 clone 15; parameters: species or system mouse; details: Table 5; estradiol ovalbumin europium conjugate
# Description: […]. The linear peptide 1 is 15-amino acid long. We further explored the possibility whether smaller peptides derived from peptide 1 may have antibody binding activity and receptor binding activity. In order to find out the minimum amino acid sequence required in the linear peptide 1 for antibody and receptor binding, several peptides with varying length of from 4 to 14 amino acids long were synthesized, and were first evaluated in terms of binding to anti-estradiol (E2) mAb clone 15. The peptides showing similar or better antibody binding activity than the linear peptide 1 were further evaluated in terms of binding to ERα and β.
# [3] = test system: creatine kinase (CK) specific activity in rat tissues; assay: Stimulation of creatine kinase specific activity in rat tissues in vivo
# Description: The control goups received 0.5 ml saline containing 0.5% ethanol or tris-saline alone. The various organs were assayed for CK activity four hours after treatment.
# [4] = test system: anti-progesterone, clone 1E11, anti-estriol, clone 9B4, anti-testosterone, clone 5F2; assay: ELISA: competition with solid phase hapten protein conjugates for homologous anti-steroidal antibodies; assay type: binding; details: data not shown
# Description: (§1) ELISA methodology was used first for the initial screening of the various peptides for antibody binding specificity.
# anti-E2, clone 15 = assay: ELISA: competition with solid-phase estradiol ovalbumin conjugate for anti-E2 clone 15; assay type: binding, mouse
# Description: as §1
# [5] = test system: anti-E2 antibodies, clones 8D9, 11B6 and 2F9; assay: ELISA: competition with solid-phase estradiol ovalbumin conjugate for other high affinity anti-E2 antibodies; assay type: binding; details: peptide at 0.5 mM
# Description: as §1
# ER β = ER β (Homo sapiens, UniProt Q92731); assay: Receptor binding assay for estrogen receptor beta
# [6] = test system: anti-progesterone mAb clone 1E11; assay: RIA: competition with [3H]-progesterone for anti-progesterone clone 1E11; parameters: species or system mouse; details: FIG. 4, read-out: IC50, competition with [3H]-progesterone for binding sites of anti-progesterone clone 1E11
# Description: In order to confirm the specific binding activity of the peptides 3 and 4 for the anti-progesterone mnAb clone 1E11, a RIA system where the peptides competed with [^3H]-progesterone for the binding sites of clone 1E11 was used. […]
# [7] = immature female rats, four hours after treatment, estradiol 5 μg/rat, peptides and raloxifene 0.5 mg/rat, mean ± S.E.M., n=15
# Sequence of ER β (Q92731 whole entry, species assumed): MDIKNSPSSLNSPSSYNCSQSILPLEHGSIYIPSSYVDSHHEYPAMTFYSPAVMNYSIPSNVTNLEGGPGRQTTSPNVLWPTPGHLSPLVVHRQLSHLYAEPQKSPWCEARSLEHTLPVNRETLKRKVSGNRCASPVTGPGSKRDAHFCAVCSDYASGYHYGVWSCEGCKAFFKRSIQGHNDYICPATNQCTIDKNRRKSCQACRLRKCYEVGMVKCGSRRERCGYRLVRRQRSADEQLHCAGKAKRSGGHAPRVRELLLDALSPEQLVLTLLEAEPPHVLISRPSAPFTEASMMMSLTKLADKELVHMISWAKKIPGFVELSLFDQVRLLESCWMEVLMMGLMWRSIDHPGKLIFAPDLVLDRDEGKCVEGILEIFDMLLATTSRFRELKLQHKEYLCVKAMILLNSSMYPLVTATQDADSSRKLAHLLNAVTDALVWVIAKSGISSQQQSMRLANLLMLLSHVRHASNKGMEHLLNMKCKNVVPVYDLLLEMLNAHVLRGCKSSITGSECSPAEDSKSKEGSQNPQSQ
smiles,measurement,setting,value
CC(C)C[C@H](NC(=O)[C@H](C)NC(=O)[C@@H]1CCCN1C(=O)[C@@H](N)CC(C)C)C(=O)N[C@@H](CC(=O)O)C(=O)N1CCC[C@H]1C(=O)N[C@H](C(=O)N[C@@H](CCCCN)C(=O)N[C@@H](CCCNC(=N)N)C(=O)N[C@@H](Cc1c[nH]c2ccccc12)C(=O)N[C@@H](Cc1ccccc1)C(=O)N[C@@H](Cc1ccccc1)C(=O)N[C@@H](CCC(=O)O)C(=O)N[C@H](C(=O)N[C@@H](CCCCN)C(=O)O)[C@@H](C)O)[C@@H](C)O [Peptide 1] (H-LPALDPTKRWFFETK-OH; N-terminus and C-terminus assumed),IC50,[1],~5 µM
same,IC50,[2],1 µM
same,stimulation of CK activity in rat tissues,"[3]; higher concentration 2.5 mg/rat, data not shown",stimulated the CK activity in the epiphysis and aorta as well
same,increase in the specific activity of creatine kinase (CK) in rat tissues,"[3]; immature female rats, 4 hours, estradiol 5 μg/rat, peptides 0.5 mg/rat",increase in CK activity only in the uterus and left ventricle
same,"Creatine kinase specific activity (Experimental/control), Aorta",[3]; [7],1.35 ± 0.23
same,"Creatine kinase specific activity (Experimental/control), Diapysis",[3]; [7],1.09 ± 0.17
same,"Creatine kinase specific activity (Experimental/control), Epipysis",[3]; [7],1.10 ± 0.09
same,"Creatine kinase specific activity (Experimental/control), LV (left ventricle)",[3]; [7],1.41 ± 03
same,"Creatine kinase specific activity (Experimental/control), Uterus",[3]; [7],1.6 ± 0.27
same,competing with solid phase hapten protein conjugates for the binding sites of homologous anti-steroidal antibodies,[4],not capable of competing
same,"inhibition of the binding of immobilized estradiol ovalbumin conjugate to anti-E2, clone 15","anti-E2, clone 15; ELISA, peptide at a concentration of 0.5 mM",36%
same,recognition of anti-E2 mAb clone 15,"anti-E2, clone 15; initial binding studies",recognized
same,inhibition of the binding of immobilized estradiol ovalbumin conjugate to other high affinity anti-E2 antibodies,[5],not
same,binding to ER β,ER β; FIG. 3,none
same,IC50 to ERβ,ER β; Table 5,none
CC[C@H](C)[C@H](NC(=O)[C@@H](NC(=O)[C@H](CO)NC(=O)[C@H](CC(C)C)NC(=O)[C@H](Cc1ccccc1)NC(=O)[C@H](CCC(N)=O)NC(=O)[C@H](C)NC(=O)[C@H](CCC(N)=O)NC(=O)[C@H](CC(=O)O)NC(=O)[C@H](Cc1c[nH]c2ccccc12)NC(=O)[C@@H]1CCCN1C(=O)[C@H](Cc1c[nH]cn1)NC(=O)[C@H](CC(N)=O)NC(=O)[C@@H](N)C(C)C)[C@@H](C)O)C(=O)O [Peptide 3] (H-VNHPWDQAQFLSTI-OH),IC50,[6],~100 µM
"CC(C)[C@H](NC(=O)[C@H](Cc1c[nH]cn1)NC(=O)[C@@H]1CSSC[C@H](NC(=O)[C@H](Cc2ccccc2)NC(=O)[C@@H]2CCCN2C(=O)[C@H](CC(N)=O)NC(=O)[C@@H](N)CO)C(=O)N[C@@H](CCC(N)=O)C(=O)N[C@@H]([C@@H](C)O)C(=O)N[C@@H](CC(=O)O)C(=O)NCC(=O)N[C@@H](CC(=O)O)C(=O)N1)C(=O)N[C@@H](Cc1c[nH]cn1)C(=O)N[C@H](C(=O)O)[C@@H](C)O [Peptide 4] (HELM PEPTIDE1{S.N.P.F.C.Q.T.D.G.D.C.H.V.H.T}$PEPTIDE1,PEPTIDE1,5:R3-11:R3$$$V2.0; N-terminus and C-terminus assumed; bridges inferred)",IC50,[6],~5 µM
"CC(=O)[C@H]1CC[C@H]2[C@@H]3CCC4=CC(=O)CC[C@]4(C)[C@H]3CC[C@]12C [Progesterone, progesterone, reference compound]",IC50,[6],< 0.001 µM
